# Reference: ChEMBL document CHEMBL5365530, “Identification of a Novel, Potent, and Orally Bioavailable Guanidine-Based SHP2 Allosteric Inhibitor from Virtual Screening and Rational Structural Optimization for the Treatment of KRAS Mutant Cancers” (J Med Chem, 2023)
# Experiments:
# [1] = target: T1, Tyrosine-protein phosphatase non-receptor type 11 (Homo sapiens, UniProt Q06124); test: Allosteric Inhibition of H2N-LN(pY)IDLDLV(dPEG8)LST(pY)ASINFQKASINFQK-amide-activated SHP2 (unknown origin) using DiFMUP as substrate pretreated with enzyme for 1 hr followed by substrate addition and measured after 20 mins by fluorescence based analysis
# T1 sequence (Q06124 whole entry): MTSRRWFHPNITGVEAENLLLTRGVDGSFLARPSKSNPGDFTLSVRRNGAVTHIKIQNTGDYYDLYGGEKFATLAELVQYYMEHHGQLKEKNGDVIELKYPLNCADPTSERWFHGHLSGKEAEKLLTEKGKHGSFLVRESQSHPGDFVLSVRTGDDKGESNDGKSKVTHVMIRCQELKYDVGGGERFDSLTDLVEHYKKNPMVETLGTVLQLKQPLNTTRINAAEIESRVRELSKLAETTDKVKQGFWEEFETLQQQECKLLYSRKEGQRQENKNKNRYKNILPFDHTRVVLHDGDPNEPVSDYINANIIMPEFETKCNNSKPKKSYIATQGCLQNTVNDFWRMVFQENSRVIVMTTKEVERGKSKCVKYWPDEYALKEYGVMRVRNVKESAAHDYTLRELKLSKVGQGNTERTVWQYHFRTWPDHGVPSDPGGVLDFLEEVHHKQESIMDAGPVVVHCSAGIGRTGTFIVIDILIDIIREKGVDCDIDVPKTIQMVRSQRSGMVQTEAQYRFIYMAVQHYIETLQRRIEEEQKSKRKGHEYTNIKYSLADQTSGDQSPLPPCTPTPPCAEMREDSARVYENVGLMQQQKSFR
# [2] = Half life in ICR mouse at 1 mg/kg, iv measured for 24 hrs by LC-MS/MS analysis; type: ADME, organism-based; conditions: in vivo
# [3] = Volume of distribution in ICR mouse at 1 mg/kg, iv measured for 24 hrs by LC-MS/MS analysis; type: ADME, organism-based; conditions: in vivo
# [4] = Tmax in ICR mouse at 10 mg/kg, po measured for 24 hrs by LC-MS/MS analysis; type: ADME, organism-based; conditions: in vivo
# [5] = target: T1, Tyrosine-protein phosphatase non-receptor type 11; test: Inhibition of SHP2 PTP domain (unknown origin) using DiFMUP as substrate pretreated with enzyme for 20 mins followed by substrate addition and measured for 2 hrs by fluorescence based analysis
# [6] = Hepatotoxicity in ICR mouse assessed as increase in plasma ALP level at 100 mg/kg, po administered once every 2 days and measured on day 14; type: toxicity, organism-based; conditions: in vivo, 336 h, time 14 day
# MIA PaCa-2 [7] = test: Induction of apoptosis in human MIA PaCa-2 cells assessed as proportion of necrotic cells at 5 uM incubated for 72 hrs by AnnexinV-FITC/PI staining based flow cytometry (reference value: 0.19%); type: functional
# MIA PaCa-2 [8] = test: Induction of apoptosis in human MIA PaCa-2 cells assessed as proportion of necrotic cells at 10 uM incubated for 72 hrs by AnnexinV-FITC/PI staining based flow cytometry (reference value: 0.19%); type: functional
# [9] = AUC in ICR mouse at 1 mg/kg, iv measured for 24 hrs by LC-MS/MS analysis; type: ADME, organism-based; design: time 24 hrs, dose 1 mg/kg, route iv; conditions: in vivo
# RAW264.7 = test: Cytotoxicity against mouse RAW264.7 cells assessed as cell viability at 10 to 30 uM incubated for 72 hrs by CellTiter-LumiII Luminescent assay; type: toxicity, cell-based; conditions: raw264.7, 72 h, dose 10-30 µM
# [10] = Toxicity against BALB/c nude mouse xenografted with human MIA PaCa-2 cells assessed as animal's death at 20 to 40 mg/kg, po administered daily for 17 days; type: organism-based; conditions: in vivo, 408 h, dose 20-40 mg/kg, time 17 day
# [11] = AUC in ICR mouse at 10 mg/kg, po measured for 24 hrs by LC-MS/MS analysis; type: ADME, organism-based; design: dose 10 mg/kg, time 24 hrs, route po; conditions: in vivo
# MIA PaCa-2 [12] = test: Induction of apoptosis in human MIA PaCa-2 cells assessed as proportion of early apoptotic cells at 10 uM incubated for 72 hrs by AnnexinV-FITC/PI staining based flow cytometry (reference value: 0.26%); type: functional
# MIA PaCa-2 [13] = test: Induction of apoptosis in human MIA PaCa-2 cells assessed as proportion of late apoptotic cells at 2.5 uM incubated for 72 hrs by AnnexinV-FITC/PI staining based flow cytometry (reference value: 1.36%); type: functional
# [14] = Cmax in ICR mouse at 10 mg/kg, po measured for 24 hrs by LC-MS/MS analysis; type: ADME, organism-based; design: time 24 hrs, dose 10 mg/kg, route po; conditions: in vivo
# MIA PaCa-2 [15] = test: Induction of apoptosis in human MIA PaCa-2 cells assessed as proportion of viable cells at 2.5 uM incubated for 72 hrs by AnnexinV-FITC/PI staining based flow cytometry (reference value: 98.19%); type: functional
# [16] = Oral bioavailability in ICR mouse at 10 mg/kg measured for 24 hrs by LC-MS/MS analysis; type: ADME, organism-based; conditions: in vivo
# MIA PaCa-2 [17] = test: Antitumor activity against human MIA PaCa-2 cells xenografted in BALB/c nude mouse assessed as inhibition of tumor growth at 40 mg/kg, po administered daily for 17 days; type: functional; conditions: time 17 day
# [18] = Half life in ICR mouse at 10 mg/kg, po measured for 24 hrs by LC-MS/MS analysis; type: ADME, organism-based; conditions: in vivo
# [19] = Toxicity against BALB/c nude mouse xenografted with human MIA PaCa-2 cells assessed as effect on body weight at 20 to 40 mg/kg, po administered daily for 17 days; type: organism-based; conditions: in vivo, 408 h, dose 20-40 mg/kg, time 17 day
# MIA PaCa-2 [20] = test: Induction of apoptosis in human MIA PaCa-2 cells assessed as proportion of viable cells at 5 uM incubated for 72 hrs by AnnexinV-FITC/PI staining based flow cytometry (reference value: 98.19%); type: functional
# MIA PaCa-2 [21] = test: Induction of apoptosis in human MIA PaCa-2 cells assessed as proportion of early apoptotic cells at 2.5 uM incubated for 72 hrs by AnnexinV-FITC/PI staining based flow cytometry (reference value: 0.26%); type: functional
# MIA PaCa-2 [22] = test: Induction of apoptosis in human MIA PaCa-2 cells assessed as proportion of late apoptotic cells at 5 uM incubated for 72 hrs by AnnexinV-FITC/PI staining based flow cytometry (reference value: 1.36%); type: functional
# KYSE-520 cell line = test: Antiproliferative activity against human KYSE-520 cells assessed as inhibition of cell growth incubated for 72 hrs by CellTiter-LumiII Luminescent assay; type: functional, cell-based; conditions: KYSE-520, 72 h
# [23] = target: Tyrosine-protein phosphatase non-receptor type 6 (Homo sapiens, UniProt P29350); test: Inhibition of SHP1 (unknown origin) using DiFMUP as substrate pretreated with enzyme for 20 mins followed by substrate addition and measured for 2 hrs by fluorescence based analysis
# Sequence of Tyrosine-protein phosphatase non-receptor type 6 (P29350 whole entry): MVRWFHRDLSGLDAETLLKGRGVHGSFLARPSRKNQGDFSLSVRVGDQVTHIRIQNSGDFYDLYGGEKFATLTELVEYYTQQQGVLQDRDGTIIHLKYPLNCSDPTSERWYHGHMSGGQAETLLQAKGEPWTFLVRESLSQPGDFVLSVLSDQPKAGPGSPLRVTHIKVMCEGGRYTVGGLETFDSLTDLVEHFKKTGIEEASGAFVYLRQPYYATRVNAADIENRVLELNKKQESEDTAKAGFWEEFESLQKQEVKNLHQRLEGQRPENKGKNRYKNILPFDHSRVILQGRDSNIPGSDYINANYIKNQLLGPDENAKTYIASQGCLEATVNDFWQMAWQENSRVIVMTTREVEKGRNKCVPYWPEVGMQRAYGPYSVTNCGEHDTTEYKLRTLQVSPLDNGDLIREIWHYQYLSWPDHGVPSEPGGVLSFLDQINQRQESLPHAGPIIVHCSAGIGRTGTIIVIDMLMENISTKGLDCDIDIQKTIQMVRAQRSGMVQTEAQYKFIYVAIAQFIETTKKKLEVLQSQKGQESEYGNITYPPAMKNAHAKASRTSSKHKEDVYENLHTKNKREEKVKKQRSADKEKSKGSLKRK
# MIA PaCa-2 [24] = test: Antiproliferative activity against human MIA PaCa-2 cells harboring KRASG12C mutant assessed as inhibition of cell growth incubated for 72 hrs by CellTiter-LumiII Luminescent assay; type: functional, cell-based; conditions: MIA PaCa-2, 72 h
# [25] = Hepatotoxicity in ICR mouse assessed as increase in plasma AST level at 100 mg/kg, po administered once every 2 days and measured on day 14; type: toxicity, organism-based; conditions: in vivo, 336 h, time 14 day
# [26] = Clearance in ICR mouse at 1 mg/kg, iv measured for 24 hrs by LC-MS/MS analysis; type: ADME, organism-based; conditions: in vivo
# MIA PaCa-2 [27] = test: Induction of apoptosis in human MIA PaCa-2 cells assessed as proportion of early apoptotic cells at 5 uM incubated for 72 hrs by AnnexinV-FITC/PI staining based flow cytometry (reference value: 0.26%); type: functional
# MIA PaCa-2 [28] = test: Induction of apoptosis in human MIA PaCa-2 cells assessed as proportion of late apoptotic cells at 10 uM incubated for 72 hrs by AnnexinV-FITC/PI staining based flow cytometry (reference value: 1.36%); type: functional
# [29] = Hepatotoxicity in ICR mouse assessed as increase in plasma ALT level at 100 mg/kg, po administered once every 2 days and measured on day 14; type: toxicity, organism-based; conditions: in vivo, 336 h, time 14 day
# MIA PaCa-2 [30] = test: Induction of apoptosis in human MIA PaCa-2 cells assessed as proportion of viable cells at 10 uM incubated for 72 hrs by AnnexinV-FITC/PI staining based flow cytometry (reference value: 98.19%); type: functional
# MIA PaCa-2 [31] = test: Induction of apoptosis in human MIA PaCa-2 cells assessed as proportion of necrotic cells at 2.5 uM incubated for 72 hrs by AnnexinV-FITC/PI staining based flow cytometry (reference value: 0.19%); type: functional
compound,measurement,setting,value
COc1ccccc1/N=C(\N)N1CCN(c2cnc(-c3cccc(Cl)c3Cl)c(N)n2)CC1,IC50,[1],112 nM
N/C(=N\c1ccc(C(F)(F)F)cc1)N1CCN(c2cnc(-c3cccc(Cl)c3Cl)c(N)n2)CC1,IC50,[1],92.2 nM
N=C(N)N1CCN(c2cnc(-c3cccc(Cl)c3Cl)c(N)n2)CC1,IC50,[1],414 nM
COc1cccc(/N=C(\N)N2CCN(c3cnc(-c4cccc(Cl)c4Cl)c(N)n3)CC2)c1,IC50,[1],30.4 nM
N/C(=N\c1cncnc1)N1CCN(c2cnc(-c3cccc(Cl)c3Cl)c(N)n2)CC1,IC50,[1],210 nM
N/C(=N\c1ccc(F)cc1)N1CCN(c2cnc(-c3cccc(Cl)c3Cl)c(N)n2)CC1,IC50,[1],53.3 nM
Nc1nc(N2CCN(S(N)(=O)=O)CC2)cnc1-c1cccc(Cl)c1Cl,IC50,[1],3400 nM
N#Cc1ccc(/N=C(\N)N2CCN(c3cnc(-c4cccc(Cl)c4Cl)cn3)CC2)cc1,IC50,[1],3760 nM
COc1cc(/N=C(\N)N2CCN(c3cnc(-c4cccc(Cl)c4Cl)c(N)n3)CC2)ccc1C#N,half-life,[2],1.9 h
same,Vd,[3],8.4 L/kg
same,Tmax,[4],0.8 h
same,IC50,[5],> 30000 nM
same,Activity,[6],Non-Toxic
same,Activity,MIA PaCa-2 [7],0.15%
same,Activity,MIA PaCa-2 [8],0.22%
same,AUC at 24 h,[9],0.651 µM·h
same,Activity,RAW264.7,Non-Toxic
same,Activity,[10],Non-Toxic
same,AUC at 24 h,[11],4.32 µM·h
same,Activity,MIA PaCa-2 [12],12.54%
same,Activity,MIA PaCa-2 [13],6.18%
same,Cmax,[14],1090 nM
same,Activity,MIA PaCa-2 [15],88.63%
same,bioavailability,[16],66.3%
same,inhibition (INH),MIA PaCa-2 [17],48%
same,half-life,[18],2 h
same,Activity,[19],Non-Toxic
same,Activity,MIA PaCa-2 [20],79.83%
same,Activity,MIA PaCa-2 [21],4.98%
same,Activity,MIA PaCa-2 [22],12.55%
same,IC50,KYSE-520 cell line,1800 nM
same,IC50,[23],> 30000 nM
same,IC50,MIA PaCa-2 [24],6800 nM
same,Activity,[25],Non-Toxic
same,IC50,[1],17.7 nM
same,clearance,[26],52.2 mL/min/kg
same,Activity,MIA PaCa-2 [27],7.47%
same,Activity,MIA PaCa-2 [28],23.65%
same,Activity,[29],Non-Toxic
same,Activity,MIA PaCa-2 [30],63.59%
same,Activity,MIA PaCa-2 [31],0.21%
N/C(=N\c1ccsc1)N1CCN(c2cnc(-c3cccc(Cl)c3Cl)c(N)n2)CC1,IC50,[1],48.1 nM
CNC(=O)c1ccc(/N=C(\N)N2CCN(c3cnc(-c4cccc(Cl)c4Cl)c(N)n3)CC2)cc1,IC50,[1],3210 nM
N#Cc1ccc(/N=C(\N)N2CCN(c3cnc(-c4cccc(Cl)c4Cl)c(N)n3)CC2)cn1,IC50,[1],74.2 nM
N/C(=N\c1cccnc1)N1CCN(c2cnc(-c3cccc(Cl)c3Cl)c(N)n2)CC1,IC50,[1],142 nM
NC(=S)N1CCN(c2cnc(-c3cccc(Cl)c3Cl)c(N)n2)CC1,IC50,[1],1150 nM
N/C(=N\c1ccncc1)N1CCN(c2cnc(-c3cccc(Cl)c3Cl)c(N)n2)CC1,IC50,[1],64.5 nM
